Test results published in patent publication US4701205A, “Chemical tobacco sucker control” (Chevron Research Company, priority 1986, dated 1987).
Where two headings read alike, the source gives them in different places.

Tests used:
[1] = system: tobacco suckers (axillary buds), Var. Glurk; assay: Tobacco sucker control, spray to run-off on topped plants, Var. Glurk; format: in vivo, Nicotiana tabacum; settings: for inhibition at 200 µg/mL / inhibition at 400 µg/mL / inhibition at 800 µg/mL: Nicotiana tabacum, read-out: Percent Bud Inhibition Top Two Nodes; for Mean # of Nodes with Secondary Suckers / Mean Sucker Length (cm): Table 3, six weeks after treatment
Method: In this example, the title compound of Example 1 (i.e., 2-[1-(3-trans-chloroallyloxyamino)ethylidene]-5-(2-ethylthiopropyl)cyclohexane-1,3-dione was tested side-by-side with 2-[1-(3-trans-chloroallyloxyamino)butylidene]-5-(2-ethylthio-propyl)-cyclohexane-1,3-dione for their ability to control (retard or prevent) lateral axillary buds in tobacco plants.
(§1) Twenty-four hours before treatment, the tobacco plants are "topped", removing the top 15 cm of the plant. Any plants which are tending to lean or bend in the pot were staked, and all pots labeled. Three to five replicates were used per treatment. A 5% wt. stock solution of each test compound dissolved in acetone containing a small amount of non-ionic emulsifier was prepared. The stock solution was appropriately diluted with deionized water containing 0.625 g of emulsifier per liter of water, to the desired spray solution concentration.
(§2) Plants were sprayed to point of run-off with a pressure atomizer, making sure that the stem, leaf axils, and leaves were all wet thoroughly with the solution. 30 to 35 ml of solution were used per plant. This was checked by recording volume of solution in sprayer reservoir before and after treatment. After spraying, the plants were incubated for 18 to 23 days in a greenhouse maintained at 70°-80° F. using standing water capilliary irrigation. The plants were uniformly fertilized once per week with a standard house plant fertilizer. After the incubation period, the plants were evaluated at various times for sucker control. […] The growth of secondary suckers (buds at lower nodes) when present, were also measured.
(§3) In some instances, comparisons were also made on the basis of sucker length.
(§4) The results are reported as an average of the replicates used in each test.
(§5) In this example, the title compound of Example 1 was tested side-by-side with maleic hydrazide ("C-2") with respect to axillary bud control in two varities of tobacco plants. These tests were conducted following the same general procedure as described in Example 3 hereinabove using the dosage concentrations given in the tables hereinbelow. […]

[2] = system: tobacco suckers (axillary buds); assay: Tobacco sucker control, soil drench treatment; format: in vivo; settings: for inhibition at 400 µg/mL: Nicotiana tabacum, soil, read-out: Percent Bud Inhibition Top Three Nodes
Method: as §1
(§6) Plants were sprayed to point of run-off with a pressure atomizer, making sure that the stem, leaf axils, and leaves were all wet thoroughly with the solution. 30 to 35 ml of solution were used per plant. This was checked by recording volume of solution in sprayer reservoir before and after treatment. After spraying, the plants were incubated for 18 to 23 days in a greenhouse maintained at 70°-80° F. using standing water capilliary irrigation. The plants were uniformly fertilized once per week with a standard house plant fertilizer. After the incubation period, the plants were evaluated at various times for sucker control. To make this evaluation, the axillary buds at the top three nodes (primary suckers) of each plant were compared to those of the check, and a visual estimation of percent inhibition was made wherein 0=no inhibition of axillary buds as compared with check and 100=no axillary buds at top three nodes. The growth of secondary suckers (buds at lower nodes) when present, were also measured.
(§7) In this example, the title compound of Example 1 was tested side-by-side with maleic hydrazide for tobacco sucker control (inhibition), when applied as a soil drench and also when applied only to the leaves of the plant. The same general procedure as described in Example 3 was used with the exception that the test compound was applied only to the expanded leaves for foliage treatment (foliar paint) and the compound was drenched only on the soil in the pot for soil drench treatment. The average results of these tests are given in the following table, wherein 0=no inhibition and 100=complete inhibition, i.e., no axillary buds.

[3] = system: tobacco suckers (axillary buds), Var. 12 × L8; assay: whole plant or invertebrate; format: in vivo, Nicotiana tabacum; settings: for inhibition at 200 µg/mL / inhibition at 400 µg/mL / inhibition at 800 µg/mL: Nicotiana tabacum, read-out: Percent Bud Inhibition Top Two Nodes; for Mean # of Nodes with Secondary Suckers / Mean Sucker Length (cm): Table 3, six weeks after treatment
Method: as §1, §2, §3, §4, §5

[4] = system: tobacco suckers (axillary buds); assay: Tobacco sucker control, foliar paint (expanded leaves only); format: in vivo; settings: for inhibition at 400 µg/mL: Nicotiana tabacum, foliar, read-out: Percent Bud Inhibition Top Three Nodes
Method: as §1, §6, §7

[5] = Soil Drench, 400 mg/l, six weeks after treatment

## O=c1ccc(=O)[nH][nH]1 [Compound C-2, maleic hydrazide]
[1]; 504 h
  inhibition at 200 µg/mL: 10%
  inhibition at 400 µg/mL: 88%
  inhibition at 800 µg/mL: 93%
[1]; 1008 h
  inhibition at 200 µg/mL: 31.1%
  inhibition at 400 µg/mL: 100%
  inhibition at 800 µg/mL: 100%
[1]; 200 mg/l spray
  Mean # of Nodes with Secondary Suckers: 0
  Mean Sucker Length (cm): 0 cm
[1]; 400 mg/l spray
  Mean # of Nodes with Secondary Suckers: 1.5
  Mean Sucker Length (cm): 51.0 cm
[1]; 800 mg/l spray
  Mean # of Nodes with Secondary Suckers: 2.5
  Mean Sucker Length (cm): 31.0 cm
[2]; 504 h
  inhibition at 400 µg/mL: 79%
[2]; 1008 h
  inhibition at 400 µg/mL: 84%
[2]; [5]
  Observation on new growth (footnote b): new growth deformedstrap shaped leaves
  Observation on suckers at basal nodes (footnote a): some suckers appearing at basal nodes
[2]; applied as a soil drench
  Sucker control when applied as a soil drench (systemic action), in words: operates sytemically
[3]; 504 h
  inhibition at 200 µg/mL: 0%
  inhibition at 400 µg/mL: 23%
  inhibition at 800 µg/mL: 95%
[3]; 1008 h
  inhibition at 200 µg/mL: 12.7%
  inhibition at 400 µg/mL: 54.1%
  inhibition at 800 µg/mL: 100%
[3]; 200 mg/l spray
  Mean # of Nodes with Secondary Suckers: 0.3
  Mean Sucker Length (cm): 3.0 cm
[3]; 400 mg/l spray
  Mean # of Nodes with Secondary Suckers: 1.3
  Mean Sucker Length (cm): 76.8 cm
[3]; 800 mg/l spray
  Mean # of Nodes with Secondary Suckers: 5.3
  Mean Sucker Length (cm): 25.8 cm
[4]; 504 h
  inhibition at 400 µg/mL: 15%
[4]; 1008 h
  inhibition at 400 µg/mL: 0%
[4]; applied only to the leaves of the tobacco plant
  Sucker control when applied only to the leaves (systemic action), in words: does not translocate effectively
